Test results from patent US10941157B2, “Pesticidal compositions and uses thereof” (Gilead Apollo, LLC, priority 2015, dated 2021).
Values after ≈ are worked out from the molar mass of the structure shown.

Tests used:
Assay type in all cases: cell-based
[1] = system: Fusarium virguliforme (Fv); assay: In vitro pathogen growth inhibition assay, Fv; conditions: ≥90% inhibition, 48 hours vs 2% DMSO control, read-out: Compound Concentration (ppm) sufficient for ≥90% inhibition of growth, Fv
Procedure: (§1) A growth inhibition assay was conducted to determine the ability of compounds to control the growth of fungal pathogens, such as Botrtyis cinerea (Bc), Collectotrichum graminicola (Cg), Diplodia maydis (Dm), Fusarium moniliforme (Fm), Fusarium virguliforme (Fv), Phytophthora capsici (Pc), Rhizoctonia solani (Rs), and Septoria tritici (St). The compounds listed in Table 1 were each dissolved in DMSO at 2.5 mg/ml to produce compound stock solutions (“stocks”). […] Negative controls on each plate included 2% DMSO, water, and a blank (media+2% DMSO). Fungal spores were isolated from previously sub-cultured plates of Botrtyis cinerea (Bc), Collectotrichum graminicola (Cg), Diplodia maydis (Dm), Fusarium moniliforme (Fm), Fusarium virguliforme (Fv), Phytophthora capsici (Pc), and Septoria tritici (St). The isolated spores were diluted to individual concentrations with a 17% V8 liquid media. For Rhizoctonia solani (Rs), 1.5 mm mycelial plugs were used in place of spores and ¼ Potato Dextrose Broth (PDB) was used for dilution. The spore concentrations and plug sizes were based on growth curves generated at 48 hours for each pathogen. In a second 96-well plate, the spores or mycelial plugs, media, diluted compound solutions, and controls were combined. Once the compound was added, a true final concentration of compound in each well was measured by an OD600 reading, which adjusted for any compound precipitation that might have occurred in the well. Plate readings were repeated at both 24 and 48 hours. The blank negative control was used as a background subtraction. Additional visual ratings were performed at both 24 and 48 hours for checking on precipitation and confirming efficacy. […] Both tables list the concentration of each compound that was sufficient to ≥90% inhibition of growth for each of the fungal pathogens listed above. In addition, some of compounds were tested in a yeast growth inhibition assay for Saccharomyces cerevisiae (Sc). Table 2 lists the concentration of the tested compound that was sufficient to ≥75% inhibition of Saccharomyces cerevisiae (Sc).

Botrtyis cinerea (Bc) = assay: In vitro pathogen growth inhibition assay, Bc; conditions: 48 h, ≥90% inhibition; 48 hours vs 2% DMSO control; read-out: Compound Concentration (ppm) sufficient for ≥90% inhibition of growth, Bc
Procedure: as §1

Septoria tritici (St) = assay: In vitro pathogen growth inhibition assay, St; conditions: Zymoseptoria tritici, 48 h, ≥90% inhibition; 48 hours vs 2% DMSO control; read-out: Compound Concentration (ppm) sufficient for ≥90% inhibition of growth, St
Procedure: as §1

[2] = system: Fusarium moniliforme (Fm); assay: In vitro pathogen growth inhibition assay, Fm; conditions: Fusarium verticillioides; ≥90% inhibition; 48 hours vs 2% DMSO control; read-out: Compound Concentration (ppm) sufficient for ≥90% inhibition of growth, Fm
Procedure: as §1

[3] = system: Collectotrichum graminicola (Cg); assay: In vitro pathogen growth inhibition assay, Cg; conditions: 48 h, ≥90% inhibition; 48 hours vs 2% DMSO control; read-out: Compound Concentration (ppm) sufficient for ≥90% inhibition of growth, Cg
Procedure: as §1

[4] = system: Phytophthora capsici (Pc); assay: In vitro pathogen growth inhibition assay, Pc; conditions: 48 h, ≥90% inhibition, 48 hours vs 2% DMSO control, read-out: Compound Concentration (ppm) sufficient for ≥90% inhibition of growth, Pc
Procedure: as §1

Diplodia maydis (Dm) = assay: In vitro pathogen growth inhibition assay, Dm; conditions: Stenocarpella maydis, 48 h, ≥90% inhibition; 48 hours vs 2% DMSO control; read-out: Compound Concentration (ppm) sufficient for ≥90% inhibition of growth, Dm
Procedure: as §1

Rhizoctonia solani (Rs) = assay: In vitro pathogen growth inhibition assay, Rs (mycelial plugs); conditions: Rhizoctonia solani, 48 h, ≥90% inhibition; mycelial plugs; 48 hours vs 2% DMSO control; read-out: Compound Concentration (ppm) sufficient for ≥90% inhibition of growth, Rs
Procedure: as §1

| SMILES | IC90 [1] | IC90 (Botrtyis cinerea (Bc)) | IC90 (Septoria tritici (St)) | IC90 [2] | IC90 [3] | IC90 [4] | IC90 (Diplodia maydis (Dm)) | IC90 (Rhizoctonia solani (Rs)) |
| --- | --- | --- | --- | --- | --- | --- | --- | --- |
| COc1ccc(F)cc1[C@H](Cn1c(=O)n(C(C)(C)C(=O)NC(C)C)c(=O)c2c(C)c(-n3nccn3)sc21)OC1CCC(=O)CC1 [Compound I-050] | 0.4 µg/mL (≈ 0.624 µM) | 0.08 µg/mL (≈ 0.125 µM) | > 50 µg/mL | 0.08 µg/mL (≈ 0.125 µM) | 2 µg/mL (≈ 3.12 µM) | 50 µg/mL (≈ 78 µM) | ≥ 0.08 µg/mL | 0.08 µg/mL (≈ 0.125 µM) |
| COc1ccc(F)cc1[C@H](Cn1c(=O)n(C(C)(C)C(=O)N2CCCC2)c(=O)c2c(C)c(-n3nccn3)sc21)OC1CCC(=O)CC1 [Compound I-051] | 0.4 µg/mL (≈ 0.613 µM) | 0.4 µg/mL (≈ 0.613 µM) | > 50 µg/mL | 0.08 µg/mL (≈ 0.123 µM) | 0.4 µg/mL (≈ 0.613 µM) | > 50 µg/mL | ≥ 0.4 µg/mL | 0.4 µg/mL (≈ 0.613 µM) |
| COc1ccc(F)cc1[C@H](Cn1c(=O)n(C(C)(C)C(=O)N2CCCCC2)c(=O)c2c(C)c(-n3nccn3)sc21)OC1CCC(=O)CC1 [Compound I-052] | 0.4 µg/mL (≈ 0.6 µM) | 0.4 µg/mL (≈ 0.6 µM) | > 50 µg/mL | 0.08 µg/mL (≈ 0.12 µM) | ≥ 0.4 µg/mL | > 50 µg/mL | 2 µg/mL (≈ 3 µM) | 2 µg/mL (≈ 3 µM) |
| CCO[C@@H](Cn1c(=O)n(C(C)(C)C(=O)N2CCCC2)c(=O)c2c(C)c(-n3cccn3)sc21)c1cc(F)ccc1OC [Compound I-053] | 0.4 µg/mL (≈ 0.685 µM) | 0.4 µg/mL (≈ 0.685 µM) | ≥ 50 µg/mL | 0.08 µg/mL (≈ 0.137 µM) | 2 µg/mL (≈ 3.43 µM) | > 50 µg/mL | ≥ 2 µg/mL | 2 µg/mL (≈ 3.43 µM) |
| CCO[C@@H](Cn1c(=O)n(C(C)(C)C(=O)NC(C)C)c(=O)c2c(C)c(-n3nccn3)sc21)c1cc(F)ccc1OC [Compound I-054] | ≥ 0.08 µg/mL | 0.4 µg/mL (≈ 0.698 µM) | 10 µg/mL (≈ 17.5 µM) | 0.08 µg/mL (≈ 0.14 µM) | 0.4 µg/mL (≈ 0.698 µM) | > 50 µg/mL | 0.4 µg/mL (≈ 0.698 µM) | 0.4 µg/mL (≈ 0.698 µM) |
| CCO[C@@H](Cn1c(=O)n(C(C)(C)C(=O)N2CCCC2)c(=O)c2c(C)c(-n3nccn3)sc21)c1cc(F)ccc1OC [Compound I-055] | ≥ 0.08 µg/mL | 0.4 µg/mL (≈ 0.684 µM) | ≥ 2 µg/mL | 0.08 µg/mL (≈ 0.137 µM) | 0.08 µg/mL (≈ 0.137 µM) | > 50 µg/mL | ≥ 0.4 µg/mL | 0.4 µg/mL (≈ 0.684 µM) |
| COc1ccc(F)cc1[C@H](Cn1c(=O)n(C(C)C(=O)N2CCCC2)c(=O)c2c(C)c(-n3nccn3)sc21)OC(C)C (stereo partly shown) [Compound I-056] | 0.24 µg/mL (≈ 0.41 µM) | 0.4 µg/mL (≈ 0.684 µM) | 26 µg/mL (≈ 44.5 µM) | 0.08 µg/mL (≈ 0.137 µM) | 0.08 µg/mL (≈ 0.137 µM) | 30 µg/mL (≈ 51.3 µM) | 0.08 µg/mL (≈ 0.137 µM) | 0.24 µg/mL (≈ 0.41 µM) |
| COc1ccc(F)cc1[C@H](Cn1c(=O)n([C@@H](C)C(=O)NC(C)C)c(=O)c2c(C)c(-n3nccn3)sc21)OC(C)C [Compound I-057] | 0.4 µg/mL (≈ 0.698 µM) | 0.4 µg/mL (≈ 0.698 µM) | 50 µg/mL (≈ 87.3 µM) | 0.08 µg/mL (≈ 0.14 µM) | 0.08 µg/mL (≈ 0.14 µM) | 50 µg/mL (≈ 87.3 µM) | 0.4 µg/mL (≈ 0.698 µM) | 0.4 µg/mL (≈ 0.698 µM) |
| COc1ccc(F)cc1[C@H](Cn1c(=O)n([C@@H](C)C(=O)N2CCCC2)c(=O)c2c(C)c(-n3nccn3)sc21)OC(C)C [Compound I-058] | 0.08 µg/mL (≈ 0.137 µM) | 0.4 µg/mL (≈ 0.684 µM) | > 50 µg/mL | 0.08 µg/mL (≈ 0.137 µM) | 0.08 µg/mL (≈ 0.137 µM) | ≥ 10 µg/mL | 0.08 µg/mL (≈ 0.137 µM) | 0.4 µg/mL (≈ 0.684 µM) |
| COc1ccc(F)cc1[C@H](Cn1c(=O)n(CC(=O)N2CCCC2)c(=O)c2c(C)c(-n3nccn3)sc21)OC(C)C [Compound I-059] | ≥ 0.08 µg/mL | 0.08 µg/mL (≈ 0.14 µM) | 10 µg/mL (≈ 17.5 µM) | 0.08 µg/mL (≈ 0.14 µM) | 0.4 µg/mL (≈ 0.701 µM) | > 50 µg/mL | 0.4 µg/mL (≈ 0.701 µM) | 0.4 µg/mL (≈ 0.701 µM) |
| COc1ccc(F)cc1[C@H](Cn1c(=O)n(CC(=O)NC(C)C)c(=O)c2c(C)c(-n3nccn3)sc21)OC(C)C [Compound I-060] | 0.4 µg/mL (≈ 0.716 µM) | 0.4 µg/mL (≈ 0.716 µM) | > 50 µg/mL | 0.08 µg/mL (≈ 0.143 µM) | > 50 µg/mL | > 50 µg/mL | 0.4 µg/mL (≈ 0.716 µM) | ≥ 2 µg/mL |
| COc1ccc(F)cc1[C@H](Cn1c(=O)n([C@H](C)C(=O)NC(C)C)c(=O)c2c(C)c(-n3nccn3)sc21)OC(C)C [Compound I-061] | 0.4 µg/mL (≈ 0.698 µM) | 0.4 µg/mL (≈ 0.698 µM) | > 50 µg/mL | 0.08 µg/mL (≈ 0.14 µM) | 0.08 µg/mL (≈ 0.14 µM) | > 50 µg/mL | 0.4 µg/mL (≈ 0.698 µM) | 0.4 µg/mL (≈ 0.698 µM) |
| COc1ccc(F)cc1[C@H](Cn1c(=O)n(C(C)C(=O)N2CCCC2)c(=O)c2c(C)c(-n3cccn3)sc21)OC(C)C (stereo partly shown) [Compound I-062] | 0.4 µg/mL (≈ 0.685 µM) | 0.4 µg/mL (≈ 0.685 µM) | 50 µg/mL (≈ 85.7 µM) | 0.08 µg/mL (≈ 0.137 µM) | 0.4 µg/mL (≈ 0.685 µM) | 50 µg/mL (≈ 85.7 µM) | 1.2 µg/mL (≈ 2.06 µM) | 2 µg/mL (≈ 3.43 µM) |
| COc1ccc(F)cc1[C@H](Cn1c(=O)n([C@@H](C)C(=O)N2CCCC2)c(=O)c2c(C)c(-n3cccn3)sc21)OC(C)C [Compound I-063] | 0.4 µg/mL (≈ 0.685 µM) | 0.4 µg/mL (≈ 0.685 µM) | ≥ 50 µg/mL | 0.08 µg/mL (≈ 0.137 µM) | 0.4 µg/mL (≈ 0.685 µM) | > 50 µg/mL | ≥ 0.4 µg/mL | 2 µg/mL (≈ 3.43 µM) |
| COc1ccc(F)cc1[C@H](Cn1c(=O)n(C(C)(C)C(=O)NC(C)C)c(=O)c2c(C)c(-n3nccn3)sc21)OC[C@@H](C)O [Compound I-065] | 0.4 µg/mL (≈ 0.664 µM) | 2 µg/mL (≈ 3.32 µM) | ≥ 2 µg/mL | 0.08 µg/mL (≈ 0.133 µM) | 0.4 µg/mL (≈ 0.664 µM) | ≥ 2 µg/mL | 0.4 µg/mL (≈ 0.664 µM) | ≥ 0.08 µg/mL |
| COc1ccc(F)cc1[C@H](Cn1c(=O)n(C(C)(C)C(=O)NC(C)C)c(=O)c2c(C)c(-n3nccn3)sc21)OC[C@H](C)O [Compound I-066] | 0.4 µg/mL (≈ 0.664 µM) | ≥ 0.4 µg/mL | ≥ 10 µg/mL | 0.08 µg/mL (≈ 0.133 µM) | ≥ 0.4 µg/mL | 50 µg/mL (≈ 83 µM) | ≥ 0.4 µg/mL | ≥ 0.4 µg/mL |
| COc1ccc(F)cc1[C@H](Cn1c(=O)n(C(C)(C)C(=O)N2CC=CC2)c(=O)c2c(C)c(-n3nccn3)sc21)OC(C)C [Compound I-067] | 0.4 µg/mL (≈ 0.67 µM) | 0.4 µg/mL (≈ 0.67 µM) | ≥ 2 µg/mL | 0.08 µg/mL (≈ 0.134 µM) | 0.08 µg/mL (≈ 0.134 µM) | > 50 µg/mL | 0.08 µg/mL (≈ 0.134 µM) | 0.4 µg/mL (≈ 0.67 µM) |
